This experiment deals with mouth (panel of three flavorists). The experiment can be described thus: Sensory evaluation of cooling strength by a panel of three flavorists. In kind it is in vivo. Conditions: for Cooling strength score of reference standards: reference standards on the scale of 1 to 10, 10 being the strongest. The method, then:
The sensory properties of crystalline MLL and liquid products that contain MLL (from Examples 1-5, above) are evaluated by a panel of three flavorists. The standard method involves holding an aqueous solution containing 20 ppm of coolant in the mouth for 30 seconds, then spitting it out and observing and quantifying the cooling effect when compared with a set of reference standards. Based on their cooling strength, the samples are scored on a scale of 1 to 10, with 10 being the strongest. Samples used as reference standards are to monomenthyl glutarate (3.5 on this scale), l-menthyl lactate (4.5) and N-ethyl-3-p-menthane carboxamide, i.e., WS-3 (10). Several coolant “cocktails,” i.e., liquid coolant-mixtures, are prepared, and their sensory properties are evaluated as in Example 6. The compositions and results appear in Table 2.

Structures are written as SMILES.

As to `CC(C)[C@@H]1CC[C@@H](C)C[C@H]1OC(=O)[C@H](C)OC(=O)[C@H](C)O` [Example 6, l-menthyl L-lactoyl-L-lactate], the “Score (cooling strength)” value (aqueous solution containing 20 ppm of coolant held in the mouth for 30 seconds, scale of 1 to 10, 10 being the strongest, Table 1) is 4.0. Besides, the “Cooling strength compared with reference coolants (in words)” value (sensory evaluation) was “intermediate between that of l-menthyl lactate and monomenthyl glutarate”.

For `CCNC(=O)C1CC(C)CCC1C(C)C` (centres unmarked) [WS-3, N-ethyl-3-p-menthane carboxamide], the “Cooling strength score of reference standards” value (“Cooling strength score” for short) is on record as 10.

In the case of `CC(C)[C@@H]1CC[C@@H](C)C[C@H]1OC(=O)[C@H](C)O` [l-menthyl lactate], the “Cooling strength score” value is 4.5.

Regarding `CC(C)[C@@H]1CC[C@@H](C)C[C@H]1OC(=O)CCCC(=O)O` [monomenthyl glutarate], the “Cooling strength score” value was 3.5.

The record behind these values is patent US7968744B2, “Physiological coolants based on lactoyl esters of menthyl lactate” (Renessenz, LLC, priority 2007, dated 2011).
